The results in this text go back to ChEMBL document CHEMBL2163248, “Classification of inhibitors of hepatic organic anion transporting polypeptides (OATPs): influence of protein expression on drug-drug interactions” (J Med Chem, 2012).

Data set [1] concerns the target T1, Solute carrier organic anion transporter family member 1B1 (Homo sapiens, UniProt Q9Y6L6).
T1 sequence (Q9Y6L6 whole entry): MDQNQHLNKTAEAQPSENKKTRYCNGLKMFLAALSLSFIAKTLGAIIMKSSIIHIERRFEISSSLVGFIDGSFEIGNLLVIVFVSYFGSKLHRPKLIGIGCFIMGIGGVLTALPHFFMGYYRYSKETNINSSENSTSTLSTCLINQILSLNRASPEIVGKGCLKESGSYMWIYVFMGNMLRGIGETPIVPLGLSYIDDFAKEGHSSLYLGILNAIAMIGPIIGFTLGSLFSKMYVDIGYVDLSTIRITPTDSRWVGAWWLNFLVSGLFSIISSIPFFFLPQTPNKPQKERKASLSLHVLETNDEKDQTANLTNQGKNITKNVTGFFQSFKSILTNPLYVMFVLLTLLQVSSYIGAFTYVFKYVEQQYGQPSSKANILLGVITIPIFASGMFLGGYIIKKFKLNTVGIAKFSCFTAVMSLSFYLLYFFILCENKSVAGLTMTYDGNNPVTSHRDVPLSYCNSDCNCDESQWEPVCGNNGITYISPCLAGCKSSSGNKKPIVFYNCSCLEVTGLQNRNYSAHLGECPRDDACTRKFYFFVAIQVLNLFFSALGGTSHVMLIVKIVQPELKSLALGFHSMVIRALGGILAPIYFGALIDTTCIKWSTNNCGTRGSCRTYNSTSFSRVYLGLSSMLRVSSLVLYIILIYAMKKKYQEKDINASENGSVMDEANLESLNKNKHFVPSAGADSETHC
Put plainly: Inhibition of human liver OATP1B1 expressed in HEK293 Flp-In cells assessed as reduction in E17-betaG uptake at 20 uM by scintillation counting. The following applies: hek293, 20 µM.

Data set [2] addresses T2, Solute carrier organic anion transporter family member 1B3 (Homo sapiens, UniProt Q9NPD5).
T2 sequence (Q9NPD5 whole entry): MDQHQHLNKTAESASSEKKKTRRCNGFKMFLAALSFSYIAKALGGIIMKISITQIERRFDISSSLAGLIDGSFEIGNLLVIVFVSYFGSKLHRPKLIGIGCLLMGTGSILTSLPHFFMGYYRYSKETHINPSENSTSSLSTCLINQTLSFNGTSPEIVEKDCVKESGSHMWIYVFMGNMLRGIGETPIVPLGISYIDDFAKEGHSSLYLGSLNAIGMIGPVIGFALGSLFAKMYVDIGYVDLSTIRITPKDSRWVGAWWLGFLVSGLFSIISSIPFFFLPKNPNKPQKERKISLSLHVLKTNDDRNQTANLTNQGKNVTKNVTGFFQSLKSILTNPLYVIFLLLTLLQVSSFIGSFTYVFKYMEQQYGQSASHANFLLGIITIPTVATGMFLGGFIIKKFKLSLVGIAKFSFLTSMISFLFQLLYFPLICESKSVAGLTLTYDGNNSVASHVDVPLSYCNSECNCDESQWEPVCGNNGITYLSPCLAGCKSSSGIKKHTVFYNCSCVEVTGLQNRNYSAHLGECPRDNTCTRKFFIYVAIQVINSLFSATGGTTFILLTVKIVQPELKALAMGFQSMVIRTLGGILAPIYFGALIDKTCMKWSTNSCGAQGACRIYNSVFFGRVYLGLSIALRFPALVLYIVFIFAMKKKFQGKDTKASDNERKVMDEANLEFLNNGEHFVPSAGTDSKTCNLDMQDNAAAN
Nature of the data set: Inhibition of human liver OATP1B3 expressed in HEK293 Flp-In cells assessed as reduction in [3H]E17-betaG uptake at 20 uM incubated for 5 mins by scintillation counting. To be noted: hek293, 5 min.

Data set [3] concerns the target T3, Solute carrier organic anion transporter family member 2B1 (Homo sapiens, UniProt O94956).
T3 sequence (O94956 whole entry): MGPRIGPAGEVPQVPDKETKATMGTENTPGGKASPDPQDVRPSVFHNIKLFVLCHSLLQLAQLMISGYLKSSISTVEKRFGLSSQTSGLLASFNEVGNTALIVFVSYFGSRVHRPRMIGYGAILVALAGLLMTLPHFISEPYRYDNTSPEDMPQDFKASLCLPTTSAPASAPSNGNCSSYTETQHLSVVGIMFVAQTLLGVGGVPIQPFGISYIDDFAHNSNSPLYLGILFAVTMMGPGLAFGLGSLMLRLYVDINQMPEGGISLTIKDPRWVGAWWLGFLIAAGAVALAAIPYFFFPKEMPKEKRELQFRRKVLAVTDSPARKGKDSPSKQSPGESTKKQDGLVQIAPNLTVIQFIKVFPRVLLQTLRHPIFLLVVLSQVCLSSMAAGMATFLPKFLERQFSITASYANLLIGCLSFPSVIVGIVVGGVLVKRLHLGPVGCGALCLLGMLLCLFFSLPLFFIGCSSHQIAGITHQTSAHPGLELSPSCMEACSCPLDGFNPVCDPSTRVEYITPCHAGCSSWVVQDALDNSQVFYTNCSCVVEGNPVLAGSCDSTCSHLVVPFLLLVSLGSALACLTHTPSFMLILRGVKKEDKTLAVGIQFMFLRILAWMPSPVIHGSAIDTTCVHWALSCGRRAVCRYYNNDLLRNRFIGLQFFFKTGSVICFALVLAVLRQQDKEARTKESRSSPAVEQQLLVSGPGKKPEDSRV
Put plainly: Inhibition of human liver OATP2B1 expressed in HEK293 Flp-In cells assessed as reduction in [3H]E3S uptake at 20 uM incubated for 5 mins by scintillation counting. To be noted: hek293, 5 min.

As to `Nc1nc2c(ncn2COCCO)c(=O)[nH]1` [ACYCLOVIR], the values for the INH in data set [1], in data set [2] and in data set [3] were 2.3%, -2% and -15.2%, respectively.

Regarding `Oc1ncnc2[nH]ncc12` [ALLOPURINOL], the INH in data set [1] is listed as -35.6%; in data set [2] it was 10.8%; in data set [3], 8.4%.

On to `NC12CC3CC(CC(C3)C1)C2` [AMANTADINE], for which the INH came out at 26.4% in data set [1], 10% in data set [2] and 17% in data set [3].

As to `Nc1ccc(C(=O)NCC(=O)O)cc1` [AMINOHIPPURIC ACID], the INH in data set [1] is reported as 30.1%; in data set [2], 23.7%; in data set [3], 27.4%.

On to `CN(C)CCC=C1c2ccccc2CCc2ccccc21` [AMITRIPTYLINE], for which the values for the INH in data set [1], in data set [2] and in data set [3] were 10.5%, 22% and -8.9%, respectively.

In the case of `COc1ccc(CCN2CCC(Nc3nc4ccccc4n3Cc3ccc(F)cc3)CC2)cc1` [ASTEMIZOLE], the INH in data set [1] worked out at 22.3%; in data set [2] it was 24.4%; in data set [3] it was 58.9%.

For the compound `COC(=O)N[C@H](C(=O)N[C@@H](Cc1ccccc1)[C@@H](O)CN(Cc1ccc(-c2ccccn2)cc1)NC(=O)[C@@H](NC(=O)OC)C(C)(C)C)C(C)(C)C` [ATAZANAVIR], the values for the INH in data set [1], in data set [2] and in data set [3] were 95%, 92.6% and 90.1%, respectively.

Take `CNCC[C@@H](Oc1ccccc1C)c1ccccc1` [ATOMOXETINE]: the INH in data set [1] is given as -7.5%; in data set [2], 31.6%; in data set [3], 16.3%.

As to `O=C(O)[C@H]1O[C@@H](Oc2cc3oc(-c4ccccc4)cc(=O)c3c(O)c2O)[C@H](O)[C@@H](O)[C@@H]1O` [BAICALIN], the results for the INH in data set [1], in data set [2] and in data set [3] were 27.6%, 20.9% and 59.1%, respectively.

Turning to `CCc1oc2ccccc2c1C(=O)c1cc(Br)c(O)c(Br)c1` [BENZBROMARONE], the INH in data set [1] came to 86.6%; in data set [2] it was 19.5%; in data set [3], 76.3%.

Consider `COc1ccc2cc3[n+](cc2c1OC)CCc1cc2c(cc1-3)OCO2` [BERBERINE], for which the INH in data set [1] was found to be 32%; in data set [2] it was 19.4%; in data set [3] it was 18.5%.

As to `CCCC1O[C@@H]2C[C@H]3[C@@H]4CCC5=CC(=O)C=C[C@]5(C)[C@H]4[C@@H](O)C[C@]3(C)[C@]2(C(=O)CO)O1` (stereo partly drawn) [BUDESONIDE], the figures for the INH in data set [1], in data set [2] and in data set [3] were 73.2%, 79% and 30.3%, respectively.

As to `CCc1cccc2cc(C(O)CNC(C)(C)C)oc12` (stereo not drawn) [BUFURALOL], the INH in data set [1] was -13.9%; in data set [2] it was 23.8%; in data set [3], -7%.

Consider `CC(NC(C)(C)C)C(=O)c1cccc(Cl)c1` (stereo not drawn) [BUPROPION], for which the values for the INH in data set [1], in data set [2] and in data set [3] were 8.5%, 7.2% and 17%, respectively.

For `O=C1CC2(CCCC2)CC(=O)N1CCCCN1CCN(c2ncccn2)CC1` [BUSPIRONE], the INH in data set [1] is on record as 33.3%; in data set [2], -5.6%; in data set [3], -13.9%.

With `Cn1c(=O)c2c(ncn2C)n(C)c1=O` [CAFFEINE], the INH in data set [1] is given as -1.8%; in data set [2], 22.1%; in data set [3] it was 3.2%.

On to `C[C@H](CS)C(=O)N1CCC[C@H]1C(=O)O` [CAPTOPRIL], for which the values for the INH in data set [1], in data set [2] and in data set [3] were 18.6%, 4% and 39.1%, respectively.

For the compound `NC(=O)N1c2ccccc2C=Cc2ccccc21` [CARBAMAZEPINE], the INH is 13.3% in data set [1], 23.2% in data set [2] and 17.3% in data set [3].

Regarding `C[N+](C)(C)CC(O)CC(=O)[O-]` (stereo not drawn) [CARNITINE], the INH in data set [1] was 36.6%; in data set [2], -9.3%; in data set [3] it was 15.5%.

Consider `CC1=C(C(=O)O)N2C(=O)[C@@H](NC(=O)[C@H](N)c3ccc(O)cc3)[C@H]2SC1` [CEFADROXIL], for which the INH in data set [1] is on record as 9.4%; in data set [2], 21%; in data set [3], 3.5%.

In the case of `Cn1nnnc1SCC1=C(C(=O)O)N2C(=O)[C@@H](NC(=O)[C@H](O)c3ccccc3)[C@H]2SC1` [CEFAMANDOLE], the values for the INH in data set [1], in data set [2] and in data set [3] were 30.2%, 16.5% and 2.7%, respectively.

In the case of `COCc1c(C(C)C)nc(C(C)C)c(/C=C/[C@@H](O)C[C@@H](O)CC(=O)O)c1-c1ccc(F)cc1` [CERIVASTATIN], the values for the INH in data set [1], in data set [2] and in data set [3] were 73.6%, 68.1% and 40.1%, respectively.

With `CN(C)CCCN1c2ccccc2Sc2ccc(Cl)cc21` [CHLORPROMAZINE], the INH in data set [1] amounted to 27.1%; in data set [2], 22.8%; in data set [3], 4.3%.

In the case of `CN(C)CC/C=C1/c2ccccc2Sc2ccc(Cl)cc21` [CHLORPROTHIXENE], the INH in data set [1] is 24%; in data set [2], -6.9%; in data set [3], 26.6%.

`C[C@H](CCC(=O)O)[C@H]1CC[C@H]2[C@@H]3[C@H](O)C[C@@H]4C[C@H](O)CC[C@]4(C)[C@H]3C[C@H](O)[C@]12C` [CHOLIC ACID]: the INH was 41.6% in data set [1], 40.8% in data set [2] and 20.2% in data set [3].

In the case of `CN/C(=N/CCSCc1nc[nH]c1C)NC#N` [CIMETIDINE], the INH is listed as 40.3% in data set [1], 24.8% in data set [2] and -6.2% in data set [3].

`Clc1ccccc1C(c1ccccc1)(c1ccccc1)n1ccnc1` [CLOTRIMAZOLE]: the INH is given as 32.3% in data set [1], -120.4% in data set [2] and -37.1% in data set [3].

Take `COc1cc2c(c(OC)c1OC)-c1ccc(OC)c(=O)cc1[C@@H](NC(C)=O)CC2` [COLCHICINE]: the INH in data set [1] was 45.2%; in data set [2] it was -3.9%; in data set [3], 24.4%.

As to `O=c1ccc2ccccc2o1` [COUMARIN], the values for the INH in data set [1], in data set [2] and in data set [3] were 7.6%, 38.2% and 9.3%, respectively.

As for `O=c1oc2cc(O)ccc2c2oc3cc(O)ccc3c12` [COUMESTROL], the INH in data set [1] is recorded as 73.2%; in data set [2] it was -21.1%; in data set [3] it was -41.5%.

On to `O=c1c(-c2ccc(O)cc2)coc2cc(O)ccc12` [DAIDZEIN], for which the values for the INH in data set [1], in data set [2] and in data set [3] were 35%, 0.7% and 32%, respectively.
